Tests used:
3T3-L1 adipocytes = test: Glucose uptake enhancing action (in vitro), 3H-2-deoxyglucose uptake in 3T3-L1 adipocytes; format: cell-based; conditions: 10 μM test compound for 72 hours, insulin added, P<0.001
Procedure: Preadipocyte cell line 3T3-L1 was purchased from the American Type Culture Collection (ATCC). The 3T3-L1 cells were plated onto a 24-well, collagen-coated plate and cultured to saturation in growth medium (DMEM, 25 mM glucose, 10% FCS, 100 u/ml penicillin, 0.1 mg/ml streptomycin) under conditions of 37° C. and 5% CO2. Five days after cell proliferation had reached a saturated state, the medium was replaced with medium (DMEM, 25 mM glucose, 10% FCS, 100 u/ml penicillin, 0.1 mg/ml streptomycin) to which had been added 1 μM insulin, 0.5 mM 3-isobutyl-1-methylxanthine and 1 μM dexamethazone to initiate adipocyte differentiation. Two days later, the medium was replaced with growth medium containing 1 μM insulin followed by additionally culturing the cells for 2 days. Subsequently, the medium was replaced with fresh growth medium every 3 days, and the 3T3-L1 adipocytes were prepared on day 10 after the start of differentiation. […]
Measurement of glucose uptake was carried out in the manner described below. […] 160 μl of the cell lysate were mixed with 4 ml of Hionic Fluor (Perkin-Elmer) liquid scintillation counter cocktail followed by measurement of the radioactivity in the cell lysate with a liquid scintillation counter (Packard). The determined radioactivity of the ^3H-labeled was used as an indicator of the amount of glucose taken up into the cells.

C57BL/ksj-db/db mice [1] = test: Glucose tolerance test using pravastatin-dosed mice; format: in vivo, mouse; conditions: pravastatin in feed for 2 weeks, 60 minutes after administration (glucose 2 g/kg i.p.), non-dose group 517 mg/dl
Procedure: A group administered with pravastatin by mixing in feed for 2 weeks and a non-dosed group of C57BL/ksj-db/db mice (n=5) were fasted for 16 hours starting on the day before the start of the test. After measuring the body weight of each animal, glucose solution ([…]) was administered intraperitoneally to 2 g/kg, and blood samples were collected from the tail vein immediately before the start of administration and at 30, 60, 90 and 120 minutes after the start of administration followed by measurement of blood glucose levels.

KKAy mice = test: Blood glucose levels after administration of pravastatin in feed, KKAy mice; format: in vivo, mouse; conditions: pravastatin mixed in feed (0.03% and 0.06% wt/wt), dose group, non-dose group 521 mg/dl
Procedure: (§1) C57BL/ksj-db/db mice (male, age 5 weeks) and KKAy mice (female, age 4 weeks) were purchased from Clea Japan, and used in the test after acclimating to the test environment for 1 week. The mice were housed 5 animals to a cage and given unrestricted access to feed (F2, Funabashi Farm) and water.
(§2) The body weights of the animals were measured and blood samples were collected on the day the test started, and the animals were divided into two groups of 5 animals per cage based on their body weights and blood glucose levels. Blood samples were collected at the start of the test and days 4, 7 and 14 after the start of the test in the case of the C57BL/ksj-db/db mice, and at the start of the test and on days 4, 7, 14 and 28 after the start of the test in the case of the KKAy mice. Blood samples were collected from the tail vein in an amount equal to one heparinized capillary tube.
(§3) Pravastatin powder was added to the F2 powder to 0.03% and 0.06% (wt/wt), uniformly mixed and provided to the animals in individual cages. The amount of feed and general behaviour were checked at least once a day.
(§4) Blood glucose levels were measured on the days when blood samples were collected.

C57BL/ksj-db/db mice [2] = test: Blood glucose levels after administration of pravastatin in feed, C57BL/ksj-db/db mice; format: in vivo, mouse; conditions: pravastatin mixed in feed (0.03% and 0.06% wt/wt), dose group, non-dose group 633 mg/dl
Procedure: as §1, §2, §3, §4

[3] = system: C57BL/ksj-db/db mouse adipocytes; test: Glucose uptake test using isolated adipocytes from pravastatin-dosed C57BL/ksj-db/db mice; format: in vivo; conditions: isolated epididymal adipocytes from C57BL/ksj-db/db mice dosed with pravastatin for 1 week, insulin, 3H-2-deoxyglucose
Procedure: (§5) • (i) Epididymal adipose tissue was excised from a group administered with pravastatin for 1 week and a non-dosed group of C57BL/ksj-db/db mice (n=5). The excised adipose tissue was handled under conditions of 37° C. at all times. The adipose tissue was cut into small pieces with a scissors, followed by the addition of medium (DMEM, 1 mM sodium pyruvate, 25 mM HEPES pH 7.4, 0.1% BSA, 100 u/ml penicillin, 0.1 mg/ml streptomycin) containing 1 mg/ml of collagenase I (Worshington), and shaking at 37° C. and 80 rpm. Following the reaction, 2.5 volumes of the aforementioned medium were added, the adipocytes were screened out by passing the cell suspension through a 260 μm mesh sieve, and again passed through a 100 μm mesh sieve to prepare an adipocyte suspension.
(§6) An adipocyte suspension was prepared for C57BL/6J mice (normal mice) in the same manner as described above. • (ii) The glucose uptake test was carried out in the manner as described below. […] After cutting out the oil layer of the upper layer containing adipocytes with a knife, it was transferred to a glass vial containing 4 ml of Hionic Fluor (Perkin-Elmer) liquid scintillation counter cocktail followed by measurement of specific radioactivity. The amount of measured radioactivity of the ^3H-2-deoxyglucose was used as an indicator of the amount of glucose taken up by the cells. […]

C57BL/ksj-db/db mice [4] = test: Insulin tolerance test using pravastatin-dosed mice; format: in vivo, mouse; conditions: pravastatin in feed for 2 weeks, 60 minutes after insulin 1 u/kg i.p., non-dose group 411 mg/dl
Procedure: A group administered with pravastatin by mixing in feed for 2 weeks and a non-dosed group of C57BL/ksj-db/db mice (n=5) were fasted for 2 hours. After measuring the body weight of each animal, insulin (Humalin, Lilly) was administered intraperitoneally at 1 u/kg, and blood samples were collected from the tail vein immediately before the start of administration and at 30, 60, 90 and 120 minutes after the start of administration followed by measurement of blood glucose levels.

[5] = system: C57BL/6J mouse adipocytes; test: Glucose uptake test using isolated adipocytes from pravastatin-dosed C57BL/6J mice; format: in vivo; conditions: isolated adipocytes from pravastatin-dosed C57BL/6J mice (normal mice), insulin, 3H-2-deoxyglucose
Procedure: as §5, §6

CC[C@H](C)C(=O)O[C@H]1C[C@H](O)C=C2C=C[C@H](C)[C@H](CC[C@@H](O)C[C@@H](O)CC(=O)O)[C@H]21 [pravastatin, (+)-(3R,5R)-3,5-dihydroxy-7-[(1S,2S,6S,8S,8aR)-6-hydroxy-2-methyl-8-[(S)-2-methylbutyryloxy]-1,2,6,7,8,8a-hexahydro-1-naphthyl]heptanoic acid]
amount of glucose uptake into the cells relative to control group (3T3-L1 adipocytes): 1.9 times
blood glucose level in glucose tolerance test (C57BL/ksj-db/db mice [1]): 342 mg/dL
blood glucose level (KKAy mice): 351 mg/dL
blood glucose level (C57BL/ksj-db/db mice [2]): 438 mg/dL
amount of glucose uptake by dose group relative to non-dose group [3]: 2.0 times
blood glucose level in insulin tolerance test (C57BL/ksj-db/db mice [4]): 324 mg/dL
amount of glucose uptake by dose group relative to non-dose group [5]: 1.4 times

Reference: patent US7772272B2, “Method for enhancing glucose uptake into warm-blooded animal adipocytes” (Daiichi Sankyo Company, Limited, priority 2003, dated 2010)
